Results: US9364467B2 (Salix Pharmaceuticals, Ltd, priority 2012, dated 2016)
≈ marks a conversion by molar mass, not a printed value. Like-named read-outs stand apart in the source and are kept apart here.

Assays:
[1] = test system: Enterobacteriaceae spp. strains; experiment: In vitro activity (MIC) against Enterobacteriaceae spp. strains
S. xylosus = experiment: In vitro activity (MIC) against S. xylosus strains
[2] = test system: Staphylococcus spp. strains; experiment: In vitro activity (MIC) against Staphylococcus spp. strains

`CO[C@H]1/C=C/O[C@@]2(C)Oc3c(C)c(O)c4c(O)c(c5c(nc6cc(C)ccn65)c4c3C2=O)NC(=O)/C(C)=C\C=C\[C@H](C)[C@H](O)[C@@H](C)[C@@H](O)[C@@H](C)[C@H](OC(C)=O)[C@@H]1C` [Rifaximin, reference compound] was tested, and the MIC ([1]; Klebsiella oxytoca, K. oxytoca 499) was 32 µg/mL (≈ 40.7 µM), the MIC ([1]; Klebsiella pneumoniae, K. pneumoniae 17) was 32 µg/mL (≈ 40.7 µM) and the MIC ([1]; Klebsiella pneumoniae, K. pneumoniae 19) was 32 µg/mL (≈ 40.7 µM). It also gave an MIC ([1]; Klebsiella pneumoniae, K. pneumoniae 76) of 32 µg/mL (≈ 40.7 µM), an MIC ([1]; Klebsiella pneumoniae, K. pneumoniae 80) of 32 µg/mL (≈ 40.7 µM) and an MIC ([1]; Klebsiella pneumoniae, K. pneumoniae 91) of 32 µg/mL (≈ 40.7 µM). For the same compound, the MIC ([1]; Klebsiella pneumoniae, K. pneumoniae 1064) was 32 µg/mL (≈ 40.7 µM), the MIC ([1]; Morganella morganii, M. morganii 42) was 16 µg/mL (≈ 20.4 µM) and the MIC ([1]; Morganella morganii, M. morganii 48) was 32 µg/mL (≈ 40.7 µM). It also gave an MIC ([1]; Morganella morganii, M. morganii 50) of 32 µg/mL (≈ 40.7 µM), an MIC ([1]; Morganella morganii, M. morganii 57) of 32 µg/mL (≈ 40.7 µM) and an MIC ([1]; Morganella morganii, M. morganii 67) of 32 µg/mL (≈ 40.7 µM). It also gave an MIC ([1]; Morganella morganii, M. morganii 101) of 32 µg/mL (≈ 40.7 µM), an MIC ([1]; Morganella morganii, M. morganii 105) of 32 µg/mL (≈ 40.7 µM) and an MIC ([1]; Morganella morganii, M. morganii 108) of 32 µg/mL (≈ 40.7 µM). The MIC ([1]; Morganella morganii, M. morganii 453) was 8 µg/mL (≈ 10.2 µM), the MIC ([1]; Morganella morganii, M. morganii 458) was 32 µg/mL (≈ 40.7 µM) and the MIC ([1]; Morganella morganii, M. morganii 461) was 32 µg/mL (≈ 40.7 µM). The MIC ([1]; Morganella morganii, M. morganii 462) was 32 µg/mL (≈ 40.7 µM), the MIC ([1]; Morganella morganii, M. morganii 923) was 16 µg/mL (≈ 20.4 µM) and the MIC ([1]; Morganella morganii, M. morganii 932) was 32 µg/mL (≈ 40.7 µM). For the same compound, the MIC ([1]; Morganella morganii, M. morganii 935) was 32 µg/mL (≈ 40.7 µM), the MIC ([1]; Morganella morganii, M. morganii 1006) was 8 µg/mL (≈ 10.2 µM) and the MIC ([1]; Proteus mirabilis, P. mirabilis 465) was 32 µg/mL (≈ 40.7 µM). For the same compound, the MIC ([1]; Proteus mirabilis, P. mirabilis 466) was 32 µg/mL (≈ 40.7 µM), the MIC ([1]; Proteus mirabilis, P. mirabilis 469) was 32 µg/mL (≈ 40.7 µM) and the MIC ([1]; Proteus mirabilis, P. mirabilis 470) was 16 µg/mL (≈ 20.4 µM). For the same compound, the MIC ([1]; Proteus mirabilis, P. mirabilis 471) was 8 µg/mL (≈ 10.2 µM), the MIC ([1]; Proteus mirabilis, P. mirabilis 472) was 8 µg/mL (≈ 10.2 µM) and the MIC ([1]; Proteus mirabilis, P. mirabilis 473) was 16 µg/mL (≈ 20.4 µM). For the same compound, the MIC ([1]; Proteus mirabilis, P. mirabilis 477) was 32 µg/mL (≈ 40.7 µM), the MIC ([1]; Proteus mirabilis, P. mirabilis 479) was 32 µg/mL (≈ 40.7 µM) and the MIC ([1]; Proteus mirabilis, P. mirabilis 480) was 32 µg/mL (≈ 40.7 µM). It also gave an MIC ([1]; Proteus mirabilis, P. mirabilis 489) of 32 µg/mL (≈ 40.7 µM), an MIC ([1]; Proteus mirabilis, P. mirabilis 928) of 32 µg/mL (≈ 40.7 µM) and an MIC ([1]; Proteus mirabilis, P. mirabilis 972) of 32 µg/mL (≈ 40.7 µM). It also gave an MIC ([1]; Proteus mirabilis, P. mirabilis 983) of 16 µg/mL (≈ 20.4 µM), an MIC ([1]; Proteus mirabilis, P. mirabilis 985) of 32 µg/mL (≈ 40.7 µM) and an MIC ([1]; Proteus mirabilis, P. mirabilis 987) of 32 µg/mL (≈ 40.7 µM). The MIC ([1]; Proteus mirabilis, P. mirabilis 988) was 8 µg/mL (≈ 10.2 µM), the MIC ([1]; Proteus mirabilis, P. mirabilis 990) was 32 µg/mL (≈ 40.7 µM) and the MIC ([1]; Proteus mirabilis, P. mirabilis 991) was 32 µg/mL (≈ 40.7 µM). For the same compound, the MIC ([1]; Proteus mirabilis, P. mirabilis 993) was 16 µg/mL (≈ 20.4 µM), the MIC ([1]; Proteus mirabilis, P. mirabilis 995) was 32 µg/mL (≈ 40.7 µM) and the MIC ([1]; Proteus mirabilis, P. mirabilis 996) was 32 µg/mL (≈ 40.7 µM). It also gave an MIC ([1]; Proteus mirabilis, P. mirabilis 997) of 32 µg/mL (≈ 40.7 µM), an MIC ([1]; Proteus mirabilis, P. mirabilis 998) of 8 µg/mL (≈ 10.2 µM) and an MIC ([1]; Providencia stuartii, P. stuartii 94) of 32 µg/mL (≈ 40.7 µM). The MIC ([1]; Providencia stuartii, P. stuartii 299) was 16 µg/mL (≈ 20.4 µM), the MIC ([1]; Providencia stuartii, P. stuartii 301) was 32 µg/mL (≈ 40.7 µM) and the MIC ([1]; Providencia stuartii, P. stuartii 306) was 16 µg/mL (≈ 20.4 µM). It also gave an MIC ([1]; Providencia stuartii, P. stuartii 312) of 32 µg/mL (≈ 40.7 µM), an MIC ([1]; Providencia stuartii, P. stuartii 459) of 32 µg/mL (≈ 40.7 µM) and an MIC ([1]; S. odorifera 59) of 32 µg/mL (≈ 40.7 µM). For the same compound, the MIC ([1]; Serratia marcescens, S. marcescens 38) was 32 µg/mL (≈ 40.7 µM), the MIC ([1]; Serratia marcescens, S. marcescens 45) was 32 µg/mL (≈ 40.7 µM) and the MIC ([1]; Serratia marcescens, S. marcescens 59) was 32 µg/mL (≈ 40.7 µM). For the same compound, the MIC ([1]; Serratia marcescens, S. marcescens 63) was 32 µg/mL (≈ 40.7 µM), the MIC ([1]; Stenotrophomonas maltophilia, S. maltophilia 1203) was 32 µg/mL (≈ 40.7 µM) and the MIC ([1]; Stenotrophomonas maltophilia, S. maltophilia 1208) was 32 µg/mL (≈ 40.7 µM). It also gave an MIC (S. xylosus; Staphylococcus xylosus) of 0.5 µg/mL (≈ 0.636 µM), an MIC (S. xylosus; strain S. xylosus 346) of 0.5 µg/mL (≈ 0.636 µM) and an MIC50 ([2]; Staphylococcus) of 0.25 µg/mL (≈ 0.318 µM). For the same compound, the MIC90 ([2]; Staphylococcus) was 1 µg/mL (≈ 1.27 µM), the “Range (MIC)” value ([2]; Staphylococcus spp. strains) was 0.03 to 1 µg/mL and the MIC ([2]; Staphylococcus, read-out: Mode (MIC), Staphylococcus spp. strains) was 0.5 µg/mL (≈ 0.636 µM). It also gave an MIC ([2]; Staphylococcus, strain S. spp. 1102) of 0.06 µg/mL (≈ 0.0763 µM), an MIC ([2]; Staphylococcus, strain S. spp. 1187) of 0.03 µg/mL (≈ 0.0382 µM) and an MIC ([2]; Staphylococcus, strain S. spp. 1195) of 0.06 µg/mL (≈ 0.0763 µM). The MIC ([2]; Staphylococcus, strain S. spp. 1256) was 0.12 µg/mL (≈ 0.153 µM), the MIC ([2]; Staphylococcus, strain S. spp. 1312) was 0.25 µg/mL (≈ 0.318 µM) and the MIC ([2]; Staphylococcus, strain S. spp. 1689) was 1 µg/mL (≈ 1.27 µM). It also gave an MIC ([2]; Staphylococcus, strain S. spp. 1745) of 0.06 µg/mL (≈ 0.0763 µM).
